Source: article PMC5401710, “Peptides with 6-Aminohexanoic Acid: Synthesis and Evaluation as Plasmin Inhibitors” (International Journal of Peptide Research and Therapeutics, 2016)
Like-named read-outs stand apart in the source and are kept apart here. Non-standard residues stand in square brackets, D forms with d. Residues, ends and D or L forms follow the SMILES beside them. Ahx = NCCCCCC(=O)O

Tests used:
tPA = biological target: T1, tPA (Homo sapiens, UniProt P00750); experiment: Amidolytic activity of t-PA (substrate S-2288); assay type: biochemical; settings: amidolytic activity, S-2288, tris buffer pH 8.4
T1 construct: purchased Boehringer Ingelheim GmbH (Ingelheim, Germany)
Procedure: (§1) Determination of amidolytic activity was performed as previously described by (Okada et al. [1988]). Buffer and 0.1 ml of enzyme solution was added to 0.2 ml of examined compound dissolved in 0.15 M NaCl (1–15) (as control 0.15 M NaCl). The buffer and the enzyme solution included: • tris buffer—0.6 ml (pH 8.8), enzyme: urokinase (50 units/ml), synthetic substrate: S-2444 (0.1 ml, 3 mM); • tris buffer—0.5 ml (pH 8.4), enzyme: thrombin (1 units/ml), synthetic substrate: S-2238 (0.2 ml, 0.75 mM); • tris buffer—0.5 ml (pH 7.4), enzyme: plasmin (0.4 units/ml), synthetic substrate: S-2251 (0.2 ml, 3 mM); • […]—0.5 ml (pH 7.5), enzyme: trypsin (0.4 units/ml), synthetic substrate: Bzl-L-Arg–pNA.HCl (0.2 ml, 8 mM); • tris buffer—0.6 ml (pH 9.0), enzyme: kallikrein (3 units/ml), synthetic substrate: S-2266 (0.1 ml, 75 mM); • tris buffer—0.6 ml (pH 8.4), enzyme: t-PA ([…]), synthetic substrate: S-2288 (0.1 ml, 10 mM).
(§2) IC50 values were determined (IC50, Inhibitor Concentration, the concentration at which enzyme activity is inhibited by 50 %). Our results were compared with the 6-aminohexanoic acid.

plasmin [1] = biological target: T2, plasmin (Homo sapiens, UniProt P00747); experiment: Amidolytic activity of plasmin (substrate S-2251); assay type: biochemical; settings: amidolytic activity, S-2251, tris buffer pH 7.4
T2 construct: The amino-terminal heavy chain of PL consists of five kringle domains; The C-terminal light chain of plasmin is a typical serine protease (SP); purchased Chromogenix (Milano, Italy)
Procedure: as §1, §2

thrombin = biological target: T3, thrombin (Bos taurus, UniProt P00735); experiment: Amidolytic activity of thrombin (substrate S-2238); assay type: biochemical; settings: amidolytic activity, S-2238, tris buffer pH 8.4
T3 construct: purchased Lubelska Wytwórnia Szczepionek (Lublin, Poland)
Procedure: as §1, §2

uPA = biological target: T4, uPA (Homo sapiens, UniProt P00749); experiment: Amidolytic activity of urokinase (substrate S-2444); assay type: biochemical; settings: amidolytic activity, S-2444, tris buffer pH 8.8
T4 construct: purchased Sigma (Schnelldorf, Germany)
Procedure: as §1, §2

plasmin [2] = biological target: T2, plasmin; settings: cited from earlier work; for inhibitory effect on plasmin activity: ref Midura-Nowaczek et al. [2003]
trypsin = experiment: Amidolytic activity of trypsin (substrate Bzl-L-Arg-pNA); assay type: biochemical; settings: amidolytic activity, Bzl-L-Arg-pNA, borane buffer pH 7.5
Procedure: as §1, §2

[3] = test system: fibrinolysis in whole blood; experiment: Thromboelastometric (ROTEM) analysis of clot formation and fibrinolysis in whole blood; design: species or system human; settings: for clotting time (CT, coagulation time) / lysis of the clot in 45 min (from LI45): human whole blood; for clotting time (CT, coagulation time): control 174 s; for lysis of the clot in 45 min (from LI45): whole blood alone about 61 %; for LOT lysis onset time (clot amplitude reduced by 15 %) / LT lysis time (clot reduced/lysed by 90 %) / LI30 lysis index, amplitude of clot after 30 min / LI45 lysis index, amplitude of clot after 45 min / LI60 lysis index, amplitude of clot after 60 min: recalcified human whole blood; for LOT lysis onset time (clot amplitude reduced by 15 %) / LT lysis time (clot reduced/lysed by 90 %): 140 ng/ml TF, 125 ng/ml tPA; for LI30 lysis index, amplitude of clot after 30 min / LI45 lysis index, amplitude of clot after 45 min / LI60 lysis index, amplitude of clot after 60 min: TF + tPA
Procedure: Five healthy volunteers, men (age range: 25–34 years)) with normal blood cell counts were entered into the study. Healthy volunteers had not taken medication known to affect platelet function and/or coagulation for at least 10 days before blood sampling.
Blood was stored at room temperature for 30 min after venipuncture and then was evaluated by thromboelastometric analyses.
Thromboelastometric measurements were performed using ROTEM system (Tem International GmbH, Manheim, Germany). […] We measured the parameters characterized kinetic of clot formation (clotting time, alpha angle), clot strength (maximal clot firmness; MCF), and fibrinolysis (percentage reduction of MCF, clot lysis time).

T2 sequence (P00747 97-580 limits assumed): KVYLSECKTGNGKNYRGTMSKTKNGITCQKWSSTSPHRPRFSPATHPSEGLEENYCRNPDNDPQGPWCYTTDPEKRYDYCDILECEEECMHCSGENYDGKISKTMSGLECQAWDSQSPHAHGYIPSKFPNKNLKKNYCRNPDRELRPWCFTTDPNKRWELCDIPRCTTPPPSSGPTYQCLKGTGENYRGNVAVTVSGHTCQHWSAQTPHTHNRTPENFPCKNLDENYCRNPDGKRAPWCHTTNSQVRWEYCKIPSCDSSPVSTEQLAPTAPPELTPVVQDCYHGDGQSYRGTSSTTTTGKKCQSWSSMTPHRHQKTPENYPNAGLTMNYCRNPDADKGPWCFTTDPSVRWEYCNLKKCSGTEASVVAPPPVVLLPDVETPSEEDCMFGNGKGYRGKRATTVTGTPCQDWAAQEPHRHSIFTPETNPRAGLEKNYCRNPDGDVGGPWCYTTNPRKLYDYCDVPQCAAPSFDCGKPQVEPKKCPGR
T2 sequence (P00747 581-810 limits assumed): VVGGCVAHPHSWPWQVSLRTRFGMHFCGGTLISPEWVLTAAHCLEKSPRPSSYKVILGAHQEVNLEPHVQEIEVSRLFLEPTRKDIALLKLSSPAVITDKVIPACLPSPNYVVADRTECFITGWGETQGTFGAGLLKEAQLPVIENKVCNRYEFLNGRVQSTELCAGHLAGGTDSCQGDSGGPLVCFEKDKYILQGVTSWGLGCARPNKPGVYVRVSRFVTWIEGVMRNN
T1 sequence (P00750 36-562): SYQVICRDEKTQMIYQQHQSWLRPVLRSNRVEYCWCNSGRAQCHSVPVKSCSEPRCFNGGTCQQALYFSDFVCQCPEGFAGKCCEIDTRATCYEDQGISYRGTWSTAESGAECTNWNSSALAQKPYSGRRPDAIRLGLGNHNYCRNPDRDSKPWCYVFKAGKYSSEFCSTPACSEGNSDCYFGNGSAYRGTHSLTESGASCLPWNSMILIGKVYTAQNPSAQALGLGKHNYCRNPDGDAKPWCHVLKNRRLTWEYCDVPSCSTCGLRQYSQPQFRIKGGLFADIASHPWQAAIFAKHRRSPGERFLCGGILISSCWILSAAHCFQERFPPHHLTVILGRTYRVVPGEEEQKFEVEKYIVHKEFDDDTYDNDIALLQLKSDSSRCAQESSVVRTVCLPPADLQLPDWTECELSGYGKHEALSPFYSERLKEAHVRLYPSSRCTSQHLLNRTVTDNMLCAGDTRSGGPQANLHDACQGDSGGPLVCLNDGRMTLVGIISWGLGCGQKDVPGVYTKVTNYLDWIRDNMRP

Row | Compound | IC50 (tPA) [mM] | IC50 (plasmin [1]) [mM] | IC50 (thrombin) [mM] | IC50 (uPA) [mM] | other results
1 | C[C@H](N)C(=O)N[C@@H](Cc1ccccc1)C(=O)N[C@@H](CCCCN)C(=O)NCCCCCC(=O)O [Compound 3, H–Ala–Phe–Lys–EACA–OH] (H-AFK[Ahx]-OH) | 17.6 ± 1.41 | 4.82 ± 0.39 | 5.04 ± 0.4 | > 20 | –
2 | C[C@@H](N)C(=O)N[C@@H](Cc1ccccc1)C(=O)NCCCCCC(=O)NCCCCCN [Compound 14, H–D-Ala–Phe–EACA–NH–(CH2)5–NH2] | > 20 | 4.77 ± 0.38 | > 20 | > 20 | –
3 | H–Ala–Phe–Lys–NH2 | – | – | – | – | inhibitory effect on plasmin activity (plasmin [2]): completely lacked this effect
4 | C[C@@H](N)C(=O)N[C@@H](Cc1ccccc1)C(=O)N[C@@H](CCCCN)C(=O)NCCCCCC(N)=O [Compound 7, H–D-Ala–Phe–Lys–EACA–NH2] (H-[dA]FK[Ahx]-NH2) | > 20 | 0.02 ± 0.0016 | > 20 | > 20 | IC50 (trypsin): > 20 mM; clotting time (CT, coagulation time) [3]: 115 s; lysis of the clot in 45 min (from LI45) [3]: 21%; LOT lysis onset time (clot amplitude reduced by 15 %) [3]: 2519 ± 176 s; LT lysis time (clot reduced/lysed by 90 %) [3]: 72 ± 4 min; LI30 lysis index, amplitude of clot after 30 min [3]: 97%; LI45 lysis index, amplitude of clot after 45 min [3]: 79%; LI60 lysis index, amplitude of clot after 60 min [3]: 28%
5 | C[C@H](N)C(=O)N[C@@H](Cc1ccccc1)C(=O)NCCCCCC(=O)NCCCCCN [Compound 15, H–Ala–Phe–EACA–NH–(CH2)5–NH2] | > 20 | > 20 | > 20 | > 20 | –
6 | CC(=O)N[C@@H](CCCCN)C(=O)NCCCCCN [Ac–Lys–NH–(CH2)5–NH2] | – | – | – | – | IC50 (plasmin [2]; ref Midura-Nowaczek et al. [2008]): 8 mM
7 | H-[dA]-Phe-Lys-NH2 | – | – | – | – | plasmin inhibitory activity (plasmin [2]; ref Markowska et al. ([2007])): no activity; inhibitory effect on plasmin activity (plasmin [2]): completely lacked this effect
8 | C[C@@H](N)C(=O)N[C@@H](Cc1ccccc1)C(=O)NCCCCCC(=O)O [Compound 4, H–D-Ala–Phe–EACA–OH] (H-[dA]-Phe-[Ahx]-OH) | 6.48 ± 0.52 | 10.9 ± 0.87 | > 20 | 3.17 ± 0.25 | –
9 | C[C@H](N)C(=O)N[C@@H](Cc1ccccc1)C(=O)NCCCCCC(N)=O [Compound 10, H–Ala–Phe–EACA–NH2] (H-Ala-Phe-[Ahx]-NH2) | > 20 | > 20 | > 20 | 2.61 ± 0.21 | –
10 | C[C@H](N)C(=O)N[C@@H](Cc1ccccc1)C(=O)NCCCCCC(=O)O [Compound 5, H–Ala–Phe–EACA–OH] (H-Ala-Phe-[Ahx]-OH) | > 20 | > 20 | 4.77 ± 0.38 | 3.38 ± 0.27 | –
11 | NCCCCCC(N)=O [H–EACA–NH2, reference compound] | – | – | – | – | clotting time (CT, coagulation time) [3]: 117 s; lysis of the clot in 45 min (from LI45) [3]: 20%; LOT lysis onset time (clot amplitude reduced by 15 %) [3]: 2488 ± 172 s; LT lysis time (clot reduced/lysed by 90 %) [3]: 71 ± 5 min; LI30 lysis index, amplitude of clot after 30 min [3]: 96%; LI45 lysis index, amplitude of clot after 45 min [3]: 80%; LI60 lysis index, amplitude of clot after 60 min [3]: 32%
